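Grown in 96-well plates, cells were treated for 48 hours with each compound at five concentrations. Insufficient inhibition: endpoint recorded as highest concentration tested. Here, GI50 denotes the concentration required for 50% inhibition of growth. TGI marks complete inhibition of growth.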
Key:
Assay in all cases: growth of human tumour cells (NCI), 48 h
[1] = test system: IGROV1 ovarian
[2] = test system: SK-MEL-5 melanoma
[3] = test system: 786-0 renal
[4] = test system: LXFL 529 NSCLC
[5] = test system: DMS 114 small cell lung
[6] = test system: XF 498 CNS
[7] = test system: DLD-1 colon
[8] = test system: KM20L2 colon
[9] = test system: M19-MEL melanoma
[10] = test system: SNB-78 CNS
[11] = test system: HOP-18 NSCLC
[12] = test system: DMS 273 small cell lung

## N#Cc1ccc(C2NN=CC23C(=O)c2ccccc2OC3c2ccccc2)cc1 (centres undefined)
[1]
  TGI: > 100 µM
[2]
  TGI: 74.8 µM
[3]
  TGI: > 100 µM

## S=C=NC1CCC(c2cc3ccccc3s2)(N2CCCCC2)CC1 (centres undefined)
[2]
  TGI: 2.94 µM
[3]
  TGI: 3.26 µM

## CN(CCCn1ccnc1[N+](=O)[O-])CCCn1ccnc1[N+](=O)[O-]
[1]
  TGI: > 100 µM
[2]
  TGI: > 100 µM
[3]
  TGI: > 100 µM

## O=C1c2ccccc2C(=O)N1CC(CN1C(=O)c2ccccc2C1=O)(C(=O)OCc1ccccc1)C(=O)OCc1ccccc1
[1]
  TGI: > 100 µM
[2]
  TGI: > 100 µM

## COc1ccc(-c2cc(=O)c3c(O)cc(O)cc3o2)c(OC)c1OC
[4]
  TGI: > 100 µM
[1]
  TGI: > 100 µM
[5]
  TGI: > 100 µM
[6]
  TGI: > 100 µM
[7]
  TGI: > 100 µM
[8]
  TGI: > 100 µM
[9]
  TGI: > 100 µM
[3]
  TGI: > 100 µM

## COc1cc(C2c3c(ccc4ccccc34)C(=O)C3CCC(=O)N32)cc(OC)c1O (centres undefined)
[1]
  TGI: > 25 µM
[3]
  TGI: > 25 µM

## CCO/C(Cc1ccc(Cl)cc1)=N/NC(N)=S
[1]
  TGI: > 100 µM
[2]
  TGI: > 100 µM
[3]
  TGI: > 100 µM

## COC(=O)C1C=CCON2CCc3c(n(S(=O)(=O)c4ccccc4)c4ccccc34)C12 (centres undefined)
[4]
  TGI: > 100 µM
[1]
  TGI: > 68.2 µM
[5]
  TGI: > 87.7 µM
[7]
  TGI: > 22.8 µM
[8]
  TGI: > 63.2 µM
[2]
  TGI: > 58.4 µM
[10]
  TGI: > 100 µM
[11]
  TGI: > 100 µM
[9]
  TGI: > 70.5 µM
[3]
  TGI: > 100 µM
[12]
  TGI: > 66.2 µM

## CCCCOC(=O)c1cc(C(=CCC[C@H]2CC[C@@]3(C)[C@@H](CC[C@@H]4[C@@H]3CC[C@]3(C)[C@@H](C(C)CCCC(C)C)CC[C@@H]43)C2)c2cc(Cl)c(O)c(C(=O)OCCCC)c2)cc(Cl)c1O (some centres undefined)
[1]
  TGI: > 50 µM
[2]
  TGI: > 50 µM
[3]
  TGI: > 50 µM

## Cn1c(N=P(c2ccccc2)(c2ccccc2)c2ccccc2)c([N+](=O)[O-])c(=O)n(C)c1=O
[1]
  TGI: > 100 µM
[2]
  TGI: > 100 µM
[3]
  TGI: > 100 µM

## COC(=O)C1=NN2c3ccccc3CN([C@@H](C)c3ccccc3)C(=O)[C@@H]2[C@H]1c1ccccc1
[2]
  TGI: > 100 µM
[3]
  TGI: > 100 µM

## Cc1ccc(N=C2C(c3ccccc3)=C(SC3=C(c4ccccc4)C(=Nc4ccc(C)cc4)c4ccccc43)c3ccccc32)cc1
[1]
  TGI: 45.5 µM
[2]
  TGI: > 100 µM
[3]
  TGI: 22.4 µM

## Cc1csc(NNC(=O)Nc2ccccc2)n1
[1]
  TGI: > 100 µM
[2]
  TGI: > 100 µM
[3]
  TGI: > 100 µM

## C=CC1(C)OC2(CCN(C(=O)OCC)CC2)OC1C (centres undefined)
[1]
  TGI: > 100 µM
[2]
  TGI: > 100 µM
[3]
  TGI: > 100 µM

## c1ccc([P+](c2ccccc2)(c2ccccc2)C2c3ccccc3-c3ccccc32)cc1
[1]
  TGI: 13.6 µM
[2]
  TGI: 3.82 µM
[3]
  TGI: 10.9 µM

## O=c1c([OH2+])c(-c2ccc(O)cc2[O-])oc2cc(O)cc([O-])c12.O=c1c([OH2+])c(-c2ccc(O)cc2[O-])oc2cc(O)cc([O-])c12.[Ti+4]
[4]
  GI50: > 100 µM
  TGI: > 100 µM
[1]
  TGI: > 100 µM
[5]
  GI50: > 100 µM
  TGI: > 100 µM
[7]
  GI50: > 100 µM
  TGI: > 100 µM
[8]
  GI50: > 100 µM
  TGI: > 100 µM
[2]
  TGI: > 100 µM
[10]
  GI50: > 100 µM
  TGI: > 100 µM
[11]
  GI50: > 100 µM
  TGI: > 100 µM
[9]
  GI50: > 100 µM
  TGI: > 100 µM
[3]
  TGI: > 100 µM
[12]
  GI50: > 100 µM
  TGI: > 100 µM

## COC1C(O)C(C)OC(OC2CCC3(C)C(CCC4C3C(O)CC3(C)C(C5=CC(=O)OC5)CCC43O)C2)C1O (centres undefined)
[1]
  TGI: 10.7 µM
[2]
  TGI: 0.501 µM

## COc1cccc(/C=C\c2ccc(O)cc2)c1
[1]
  TGI: > 100 µM
[2]
  TGI: > 51.7 µM
[3]
  TGI: 49.2 µM

## CC(O)[C@@]1(c2ccccc2)CC2(CCN(C)CC2)O[C@H]1C (some centres undefined)
[1]
  TGI: > 100 µM
[2]
  TGI: > 100 µM
[3]
  TGI: > 100 µM

## c1ccc([P+](CCCCCC[P+](c2ccccc2)(c2ccccc2)c2ccccc2)(c2ccccc2)c2ccccc2)cc1
[1]
  TGI: 30.8 µM
[3]
  TGI: > 100 µM

## COc1ccc(/C=C/C(=O)c2ccc(OC(=O)/C=C/c3ccccc3)cc2)cc1
[1]
  TGI: > 77.7 µM
[2]
  TGI: > 70 µM
[3]
  TGI: 52.8 µM

## CC1=C2C3OC(=O)C(C)C3CCC2(C)C=CC1=Nc1ccccc1 (centres undefined)
[1]
  TGI: > 100 µM
[5]
  TGI: > 100 µM
[7]
  TGI: > 100 µM
[8]
  TGI: > 100 µM
[2]
  TGI: > 100 µM
[10]
  TGI: > 100 µM
[11]
  TGI: > 100 µM
[9]
  TGI: > 100 µM
[12]
  TGI: > 100 µM

## COC1=CC(=O)C2=C(C[C@@]3(C)C(=C2)C(CO)=CC[C@H]3O)C1=O
[1]
  TGI: 31.7 µM
[2]
  TGI: 32.2 µM
[3]
  TGI: 38.1 µM

## O=c1oc2ccc3ccccc3c2cc1-c1nc2ccc([N+](=O)[O-])cc2o1
[1]
  TGI: > 100 µM
[2]
  TGI: > 100 µM
[3]
  TGI: > 55.3 µM

## O=c1c2c(F)c(F)c(F)c(F)c2sc2nccn12
[1]
  TGI: 32.3 µM
[2]
  TGI: 35.8 µM
[3]
  TGI: 29.3 µM

## CC(=O)/C(C=Nc1c(C)n(C)n(C)c1=O)=C(/O)c1ccccc1
[1]
  TGI: > 50 µM
[2]
  TGI: > 50 µM
[3]
  TGI: > 50 µM

## CCCCc1ccc(C#CC#Cc2ccc(CCCC)s2)s1
[1]
  TGI: > 100 µM
[2]
  TGI: > 100 µM
[3]
  TGI: > 100 µM

## O=C1CCCc2ccc3c(c21)CC1(Cc2ccccc2C1)C3
[1]
  TGI: > 100 µM
[2]
  TGI: 33.4 µM
[3]
  TGI: > 100 µM

## C/C(Cc1ccc2c(c1)OCO2)=N\NC(=O)C(C)Sc1nnc(SC(C)C(=O)N/N=C(\C)Cc2ccc3c(c2)OCO3)s1 (centres undefined)
[1]
  TGI: > 100 µM
[2]
  TGI: > 100 µM
[3]
  TGI: > 100 µM

## COc1cc2c[n+](C)c3c4cc(OC)c(OC)cc4ccc3c2cc1OC
[1]
  TGI: 97.7 µM
[2]
  TGI: > 100 µM
[3]
  TGI: > 100 µM

## C=C1Cc2cc(OC)c(OC)c(OC)c2-c2ccc(SC)c(=O)cc21
[4]
  TGI: 1.81 µM
[1]
  TGI: 7.66 µM
[5]
  TGI: < 0.0279 µM
[7]
  TGI: 3.7 µM
[2]
  TGI: 13.3 µM
[10]
  TGI: 49.4 µM
[11]
  TGI: 11.9 µM
[9]
  TGI: 2.42 µM
[3]
  TGI: 1.8 µM

## Cc1c(F)c(NC(=O)CN(C)C)c2c(=O)cc(-c3ccc(NC(=O)CN(C)C)c(F)c3)oc2c1F
[1]
  TGI: 32.1 µM
[2]
  TGI: 30.6 µM
[3]
  TGI: 31.1 µM

## CCCNC(=O)N(C)C(=O)N1N=C(c2ccccc2)C1c1ccccc1 (centres undefined)
[1]
  TGI: > 100 µM
[2]
  TGI: > 100 µM
[3]
  TGI: > 100 µM
